In the SangsterLogP compilation:

Key:
[1] = method code SF-AS, from DOI: 10.1021/jm00266a011, PMID: 4583365
[2] = method code SF, from DOI: 10.1021/jm00266a011, PMID: 4583365

O=C(CCl)NC(CO)C(O)c1ccc([N+](=O)[O-])cc1 (stereo not given)
logP [1]: 0.59

O=C(N[C@H](CO)[C@H](O)c1ccc([N+](=O)[O-])cc1)C(Br)(Br)Br
logP [1]: 2.17

O=C(CI)N[C@H](CO)[C@H](O)c1ccc([N+](=O)[O-])cc1
logP [1]: 1.03

CCCCCCCCN(C)/N=N/c1nc[nH]c1C(N)=O
logP [1]: 3.22

O=C(N[C@H](CO)[C@H](O)c1ccc(Br)cc1)C(Cl)Cl
logP [1]: 1.87

CC(C)C(=O)N[C@H](CO)[C@H](O)c1ccc([N+](=O)[O-])cc1
logP [1]: 0.88

O=C(N[C@H](CO)[C@H](O)c1ccc([N+](=O)[O-])cc1)C(Br)Br
logP [1]: 1.36

CN(Cc1ccccc1)/N=N/c1nc[nH]c1C(N)=O
logP [2]: 1.54

N#Cc1ccc([C@@H](O)[C@@H](CO)NC(=O)C(Cl)Cl)cc1
logP [1]: 1.29

O=C(CF)NC(CO)C(O)c1ccc([N+](=O)[O-])cc1 (stereo not given)
logP [1]: 0.15

CCCC(=O)NC(CO)C(O)c1ccc([N+](=O)[O-])cc1 (stereo not given)
logP [1]: 0.87

O=C(N[C@@H](CO)[C@@H](O)c1ccc(I)cc1)C(Cl)Cl (relative stereo)
logP [1]: 2.22

CCC(CC)C(=O)N[C@H](CO)[C@H](O)c1ccc([N+](=O)[O-])cc1
logP [1]: 1.71

O=C(NC(CO)C(O)c1ccc([N+](=O)[O-])cc1)C(Cl)(Cl)Cl (stereo not given)
logP [1]: 1.97

O=C(NC(CO)C(O)c1ccccc1)C(Cl)Cl (stereo not given)
logP [1]: 0.94

CC(=O)NC(CO)C(O)c1ccc([N+](=O)[O-])cc1 (stereo not given)
logP [1]: -0.03

O=C(Cc1ccccc1)NC(CO)C(O)c1ccc([N+](=O)[O-])cc1 (stereo not given)
logP [1]: 1.52

CC(Cl)C(=O)NC(CO)C(O)c1ccc([N+](=O)[O-])cc1 (stereo not given)
logP [1]: 0.98

O=C(N[C@H](CO)[C@H](O)c1ccc([N+](=O)[O-])cc1)C(F)F
logP [1]: 0.42

N#CCC(=O)NC(CO)C(O)c1ccc([N+](=O)[O-])cc1 (stereo not given)
logP [2]: -0.22

O=C(NC(CO)C(O)c1ccc([N+](=O)[O-])cc1)C(F)(F)F (stereo not given)
logP [1]: 1.07

O=C(N[C@H](CO)[C@H](O)c1ccc(-c2ccccc2)cc1)C(Cl)Cl
logP [1]: 2.86

O=C(NC(CO)C(O)c1ccc([N+](=O)[O-])cc1)c1ccccc1 (stereo not given)
logP [1]: 1.63

N#CC(C(=O)NC(CO)C(O)c1ccc([N+](=O)[O-])cc1)c1ccccc1 (stereo not given)
logP [1]: 1.47

CC(C)(C)C(=O)N[C@H](CO)[C@H](O)c1ccc([N+](=O)[O-])cc1
logD ([1]; pH 7.4): 1.33
